The target in series [1] is T1, yeast α-glucosidase (Saccharomyces cerevisiae, UniProt P53341).
T1 construct: purchased Sigma-Aldrich (St. Louis, MO)
Kind of series: enzyme kinetic study (Lineweaver–Burk plots) against yeast α-glucosidase. Type of series: biochemical. From the text:
Figure 2S. Lineweaver-Burk plots for inhibitory activity of compound 2 against yeast α- […]
Figure 3S. Secondary plot of slope vs [I] for deduction of Ki of compound 2 against yeast α- […]
Figure 4S. Secondary plot of intercept vs [I] for deduction of K′i of compound 2 against yeast […]
Figure 5S. The hydrophobic analysis of compounds 1 (A) and 2 (B). The H-bond interactions were shown as green dotted lines and the hydrophobic interactions with surrounding amino acids are shown as arcs with spokes radiating towards the inhibitor. These schematic diagrams were generated using LigPlot+ software (Laskowski & Swindells, 2011).
Ahmad FBH, Moghaddam MG, Basri M, Abdul Rahman MB. 2010. Anticancer activity of 3-O-acylated betulinic acid derivatives obtained by enzymatic synthesis. Biosci […]

Series [2] has as its target rat intestinal α-glucosidase (maltase). The series is described as follows: rat intestinal α-glucosidase (maltase) inhibition assay. Type of series: biochemical. The conditions noted are these: rat intestine; compounds, Table 2. As for the experimental part:
(§1) 1 D and 2 D NMR spectra were recorded on a Bruker 400 AVANCE spectrometer, and the chemical shifts were reported in parts per million (ppm) using tetramethylsilane (TMS) as the internal standard. Melting points were determined on a Fisher-Johns Melting Point apparatus. Adsorbents such as silica gel 60 (Merck) were used for column and radial (chromatotron model 7924 T, Harrison Research) chromatographies. Merck silica gel 60F254 plates were used for TLC. HRESIMS spectra were obtained using a Bruker MICROTOF model mass spectrometer. UV-visible absorption spectra were recorded using a UV-2550 (SHIMADZU) UV-Vis spectrometer (Shimadzu, Kyoto, Japan). α-Glucosidase (EC 3.2.1.20) from Saccharomyces cerevisiae and 4-nitrophenyl-α-D-glucopyranoside (p-NPG) were obtained from Sigma-Aldrich (St. Louis, MO). Acarbose was obtained from Bayer Vitol Leverkusen, Germany. Rat intestinal acetone powder was supplied by Sigma Aldrich.
(§2) Moreover, previous procedure (Damsud et al. [2013]) was also applied to determine inhibitory activity of isolated compounds against intestinal α-glucosidases (maltase and sucrase). Briefly, 10 μL of the test sample and substrate solution (maltose: 10 mM, 20 μL; sucrose: 100 mM, 20 μL, respectively) in 0.1 M phosphate buffer (pH 6.9) were incubated at 37 °C (20 min for maltase and 60 min for sucrase). The mixture was discontinued in boiling water for 10 min, and glucose released from the reaction was converted to quinoneimine using a commercial Glu Kit (Human, Germany). The absorbance of final product was determined at 503 nm, and percent inhibition was calculated using the aforementioned equation.

The target of series [3] is T2, rat intestinal α-glucosidase (sucrase) (Rattus norvegicus, UniProt P23739).
T2 construct: tissue Sigma Aldrich; host or cells: rat intestinal acetone powder
T2 sequence (P23739 1014-1841 limits assumed): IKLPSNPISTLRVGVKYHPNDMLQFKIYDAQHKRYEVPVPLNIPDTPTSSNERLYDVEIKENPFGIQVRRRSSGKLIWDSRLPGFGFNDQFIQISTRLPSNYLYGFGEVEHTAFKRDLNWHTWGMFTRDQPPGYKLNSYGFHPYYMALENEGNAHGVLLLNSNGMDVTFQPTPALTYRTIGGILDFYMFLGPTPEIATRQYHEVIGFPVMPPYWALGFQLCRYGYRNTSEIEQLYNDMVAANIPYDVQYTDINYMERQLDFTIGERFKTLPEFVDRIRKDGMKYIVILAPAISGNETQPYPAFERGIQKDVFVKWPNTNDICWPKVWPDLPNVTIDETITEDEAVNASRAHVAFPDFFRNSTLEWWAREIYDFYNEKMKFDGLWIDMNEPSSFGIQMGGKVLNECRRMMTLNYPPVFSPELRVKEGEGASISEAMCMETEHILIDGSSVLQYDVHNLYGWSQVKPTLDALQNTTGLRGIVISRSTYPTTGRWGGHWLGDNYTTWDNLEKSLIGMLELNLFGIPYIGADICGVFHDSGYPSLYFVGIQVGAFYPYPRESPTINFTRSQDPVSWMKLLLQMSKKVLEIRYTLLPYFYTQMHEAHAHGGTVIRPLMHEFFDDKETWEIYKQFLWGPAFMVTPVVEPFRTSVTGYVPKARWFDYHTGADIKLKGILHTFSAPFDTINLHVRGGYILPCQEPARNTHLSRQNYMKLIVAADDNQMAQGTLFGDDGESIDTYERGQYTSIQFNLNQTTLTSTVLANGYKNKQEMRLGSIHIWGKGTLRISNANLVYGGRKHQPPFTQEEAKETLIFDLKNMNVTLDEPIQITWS
T2 sequence (P23739 1-1013 partner limits assumed): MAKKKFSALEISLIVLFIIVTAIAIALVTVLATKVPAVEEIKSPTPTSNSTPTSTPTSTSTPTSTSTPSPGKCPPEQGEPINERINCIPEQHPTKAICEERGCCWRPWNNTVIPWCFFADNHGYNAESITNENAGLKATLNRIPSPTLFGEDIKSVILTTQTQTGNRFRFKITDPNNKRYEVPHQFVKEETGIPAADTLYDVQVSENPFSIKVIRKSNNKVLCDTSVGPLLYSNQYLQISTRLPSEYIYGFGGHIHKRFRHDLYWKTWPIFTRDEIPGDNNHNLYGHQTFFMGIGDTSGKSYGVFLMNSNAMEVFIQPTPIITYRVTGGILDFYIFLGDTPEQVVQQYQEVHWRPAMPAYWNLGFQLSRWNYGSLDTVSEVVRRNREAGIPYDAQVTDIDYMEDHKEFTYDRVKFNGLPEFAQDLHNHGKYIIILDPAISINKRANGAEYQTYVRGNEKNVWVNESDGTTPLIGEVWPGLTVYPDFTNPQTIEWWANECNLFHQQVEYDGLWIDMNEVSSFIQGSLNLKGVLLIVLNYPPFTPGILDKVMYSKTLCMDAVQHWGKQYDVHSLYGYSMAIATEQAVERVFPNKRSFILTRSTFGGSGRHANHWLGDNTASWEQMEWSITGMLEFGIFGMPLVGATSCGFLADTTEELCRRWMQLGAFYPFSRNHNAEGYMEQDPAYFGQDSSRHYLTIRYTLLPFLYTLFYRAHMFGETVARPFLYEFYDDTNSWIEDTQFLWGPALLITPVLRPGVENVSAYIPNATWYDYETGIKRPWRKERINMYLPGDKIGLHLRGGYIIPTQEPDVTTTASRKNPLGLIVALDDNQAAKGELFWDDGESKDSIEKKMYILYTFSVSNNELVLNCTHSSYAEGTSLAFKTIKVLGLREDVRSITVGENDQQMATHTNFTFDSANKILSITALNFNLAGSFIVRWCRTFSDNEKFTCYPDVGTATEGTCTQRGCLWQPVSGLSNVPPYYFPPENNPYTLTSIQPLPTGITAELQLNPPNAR
The series is described as follows: rat intestinal α-glucosidase (sucrase) inhibition assay. It counts as biochemical. The conditions noted are these: rat intestine; compounds, Table 2. As for the experimental part: as §1, with “Acarbose was obtained from Bayer Vitol Leverkusen, Germany.” left out
as §2

Series [4] can be described thus: DPPH radical scavenging activity. As to conditions: compounds, Table 2. As for the experimental part:
The antioxidant activity of the extract was evaluated through the free radical scavenging effect on 2,2′-diphenyl-1-picrylhydrazyl (DPPH) (Sigma) radical as previously reported (Yen & Hsieh [1997]) with slight modifications. 100 μL of 0.10 mM DPPH ethanolic solution was added to 20 μL of the sample with various concentrations. The mixture was thoroughly mixed and kept in the dark for 30 min. The absorbance was measured at 517 nm using a Sunrise microplate reader spectrophotometer.

Series [5] addresses T3, α-Glucosidase (EC 3.2.1.20) from Saccharomyces cerevisiae (Baker's yeast) (Saccharomyces cerevisiae, UniProt P53341).
T3 construct: purchased Sigma-Aldrich (St. Louis, MO)
The series is described as follows: biochemical. As for the experimental part:
as §1, with “Acarbose was obtained from Bayer Vitol Leverkusen, Germany.” left out
The evaluation of the inhibitory activity of all compounds against yeast and rat intestinal (maltase and sucrase) α-glucosidases was applied from a previous procedure (Damsud et al. [2013]). The inhibitory effect against yeast α-glucosidase was determined using the protocol previously described. Briefly, 10 μL of sample was mixed with α-glucosidase (0.1 U/mL) in 1 mM phosphate buffer (pH 6.9) and incubated at 37 °C for 10 min. The reaction mixture was added with 1 mM p-nitrophenyl-α-D-glucopyranoside (PNPG, 50 μL) followed by additional 20 min incubation. p-Nitrophenoxide liberated from the reaction was quantified by a microplate reader (UV 405 nm) after the addition of 1 M Na2CO3 (100 μL). The percent inhibition was deduced using the following equation. (A0-A1)/A0×100 where A1 and A0 are absorbances with and without the sample, respectively.

The mark [6] stands for this setting: compounds, Table 2, read-out: IC50 Baker's yeast α-glucosidase.

Like-named read-outs stand apart in the source and are kept apart here.

Experimental findings from article PMC6130710 (Pharmaceutical Biology, 2017) are described below.

T3 sequence (P53341 whole entry): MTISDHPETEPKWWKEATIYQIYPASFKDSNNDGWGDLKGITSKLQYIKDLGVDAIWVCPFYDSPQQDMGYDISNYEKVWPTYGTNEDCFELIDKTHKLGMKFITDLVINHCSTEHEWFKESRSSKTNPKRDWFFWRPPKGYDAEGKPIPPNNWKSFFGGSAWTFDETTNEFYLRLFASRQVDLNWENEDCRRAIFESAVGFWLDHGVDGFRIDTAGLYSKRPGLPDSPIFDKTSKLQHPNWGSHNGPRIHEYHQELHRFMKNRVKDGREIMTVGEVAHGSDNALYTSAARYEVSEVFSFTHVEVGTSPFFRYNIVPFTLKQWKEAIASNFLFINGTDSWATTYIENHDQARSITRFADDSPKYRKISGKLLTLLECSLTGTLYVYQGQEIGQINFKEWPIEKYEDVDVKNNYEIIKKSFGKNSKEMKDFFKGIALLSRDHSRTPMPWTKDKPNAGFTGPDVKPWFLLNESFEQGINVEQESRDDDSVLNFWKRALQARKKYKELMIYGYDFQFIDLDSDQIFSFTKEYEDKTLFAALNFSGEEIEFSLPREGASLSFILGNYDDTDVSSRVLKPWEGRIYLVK
T1 sequence (P53341 whole entry): as above

For orientation: IC50 means the concentration needed to halve the response being measured. `C=C(C)[C@@H]1CC[C@]2(C(=O)O)CC[C@]3(C)[C@H](CC[C@@H]4[C@@]5(C)CC[C@H](O)C(C)(C)[C@@H]5CC[C@]43C)[C@@H]12` [Compound 2, betunilic acid]: the mode of inhibition result in series [1] (Lineweaver–Burk plots, 0.063 and 1.3 mM of inhibitor) was “mixed mode inhibitor”. Moreover, the “K'i (uncompetitive component, from intercept plot)” value in series [1] (secondary plot of intercept vs [I], Figure 4S) turned out to be 0.019 mM. Also, the IC50 in series [2] is above 3 mM; in series [3] it was above 3 mM; in series [4], above 10 mM; in series [5] (setting [6]) it was 0.0163 ± 0.00203 mM; in series [5] (restated in mM in docking section, read-out: experimental IC50 yeast α-glucosidase) it was 0.016 mM. The “IC50 DPPH” value in series [4] is reported as “no activity”.

Broadly, the melting point is the temperature of the solid-liquid transition. For `C=C(C)[C@@H]1CC[C@]2(C(=O)N(C(=O)NC3CCCCC3)C3CCCCC3)CC[C@]3(C)[C@H](CC[C@@H]4[C@@]5(C)CC[C@H](O)C(C)(C)[C@@H]5CC[C@]43C)[C@@H]12` [Compound 2g], the melting point fell in the range of 193 to 194 °C. In addition, the IC50 in series [2] is above 3 mM. Moreover, in series [3], the IC50 is above 3 mM. The compound further displayed a concentration for half-maximal inhibition (IC50) in series [4] above 10 mM. In addition, the IC50 in series [5] (setting [6]) was determined as 0.23 ± 0.00011 mM.
